Source: patent US7678803B2, “Quinazoline derivatives for the treatment of cancer” (Serenex, Inc., priority 2006, dated 2010)

Tested on: HSP-90 (heat shock protein 90)
Assay: Determination of affinity for HSP-90 (elution from purine affinity column); note: key: +++: very high; ++: high; +: moderate
Conditions: relative binding affinity to HSP-90
Description: Affinity of test compounds for HSP-90 is determined as follows: Protein mixtures obtained from a variety of organ tissues (for example: spleen, liver and lung) are reversibly bound to a purine affinity column to capture purine-binding proteins, especially HSP-90. […] The elution profile of Formula I compounds is determined by 1-dimensional SDS polyacrylamide gel electrophoresis. Gels are stained with a fluorescent stain such as sypro ruby (a highly sensitive fluorescent protein stain that can readily detect less than 1 fmol of total protein, i.e., less than 0.04 ng for a 40 kDa protein) or silver nitrate. The gels are imaged using a standard flat bed gel imager and the amount of protein estimated by densitometry. The percent of HSP-90 protein eluted from the column at each concentration is determined and IC50 values are calculated from these estimates.

For `Cc1cn(-c2ccc3c(N)nc(N)nc3c2)c2c1C(=O)CC(C)(C)C2` [Compound 41, 1-(2,4-diaminoquinazolin-7-yl)-3,6,6-trimethyl-6,7-dihydro-1H-indol-4(5H)-one], the Affinity was “+++”.

In the case of `Cc1cn(-c2ccc3c(N)ncc(C(=O)O)c3c2)c2c1C(=O)CC(C)(C)C2` [Compound 106, 1-amino-6-(3,6,6-trimethyl-4-oxo-4,5,6,7-tetrahydro-1H-indol-1-yl)isoquinoline-4-carboxylic acid], the Affinity is reported as “++”.

In the case of `Cc1cn(-c2ccc3c(N)ncnc3c2)c2c1C(=O)CCC2` [Compound 45, 1-(4-aminoquinazolin-7-yl)-3-methyl-6,7-dihydro-1H-indol-4(5H)-one], the Affinity is reported as “++”.

`Cc1cn(-c2ccc3c(N)ncnc3c2O)c2c1C(=O)CC(C)(C)C2` [Compound 68, 1-(4-amino-8-hydroxyquinazolin-7-yl)-3,6,6-trimethyl-6,7-dihydro-1H-indol-4(5H)-one] was tested, and the Affinity was “+++”.

`CC(C)Cc1nn(-c2ccc3c(N)ncnc3c2)c2c1C(=O)CC(C)(C)C2` [Compound 87, 1-(4-aminoquinazolin-7-yl)-3-isobutyl-6,6-dimethyl-6,7-dihydro-1H-indazol-4(5H)-one] was tested, and the Affinity was “+++”.

`C#CCOc1cc(-n2cc(C)c3c2CC(C)(C)CC3=O)cc2ncnc(N)c12` [Compound 71, 1-(4-amino-5-(prop-2-ynyloxy)quinazolin-7-yl)-3,6,6-trimethyl-6,7-dihydro-1H-indol-4(5H)-one] was tested, and the Affinity was “+”.

In the case of `COCCNc1c(-n2cc(C)c3c2CC(C)(C)CC3=O)ccc2c(N)ncnc12` [Compound 56, 1-(4-amino-8-(2-methoxyethylamino)quinazolin-7-yl)-3,6,6-trimethyl-6,7-dihydro-1H-indol-4(5H)-one], the Affinity is reported as “+++”.

With `Cc1nn(-c2ccc3c(N)ncc(C(N)=O)c3c2)c2c1C(=O)CC(C)(C)C2` [Compound 99, 1-amino-6-(3,6,6-trimethyl-4-oxo-4,5,6,7-tetrahydro-1H-indazol-1-yl)isoquinoline-4-carboxamide] the Affinity was “++”.

For `Cc1cn(-c2ccc3c(N)ncnc3c2SCCNC(=O)OC(C)(C)C)c2c1C(=O)CC(C)(C)C2` [Compound 77, tert-butyl 2-(4-amino-7-(3,6,6-trimethyl-4-oxo-4,5,6,7-tetrahydro-1H-indol-1-yl)quinazolin-8-ylthio)ethylcarbamate], the Affinity was “++”.

With `COCCCOc1c(-n2cc(C)c3c2CC(C)(C)CC3=O)ccc2c(N)ncnc12` [Compound 60, 1-(4-amino-8-(3-methoxypropoxy)quinazolin-7-yl)-3,6,6-trimethyl-6,7-dihydro-1H-indol-4(5H)-one] the Affinity was “+++”.

For `Cc1nn(-c2ccc3c(N)ncnc3c2F)c2c1C(=O)CC(C)(C)C2` [Compound 95, 1-(4-amino-8-fluoroquinazolin-7-yl)-3,6,6-trimethyl-6,7-dihydro-1H-indazol-4(5H)-one], the Affinity was “+++”.

`Cc1nc(N)c2ccc(-n3cc(C)c4c3CC(C)(C)CC4=O)cc2n1` [Compound 40, 1-(4-amino-2-methylquinazolin-7-yl)-3,6,6-trimethyl-6,7-dihydro-1H-indol-4(5H)-one] was tested, and the Affinity was “+++”.

For `CC1(C)CC(=O)c2c(C(F)(F)F)nn(-c3ccc4c(N)ncc(Br)c4c3)c2C1` [Compound 46, 1-(1-amino-4-bromoisoquinolin-6-yl)-6,6-dimethyl-3-(trifluoromethyl)-6,7-dihydro-1H-indazol-4(5H)-one], the Affinity was “+”.

`Cc1cn(-c2ccc3c(Cl)nccc3c2)c2c1C(=O)CC(C)(C)C2` [Compound 44, 1-(1-chloroisoquinolin-6-yl)-3,6,6-trimethyl-6,7-dihydro-1H-indol-4(5H)-one] was tested, and the Affinity was “+”.

In the case of `CCCCSc1c(-n2cc(C)c3c2CC(C)CC3=O)ccc2c(N)ncnc12` (centres unmarked) [Compound 72, 1-(4-amino-8-(butylthio)quinazolin-7-yl)-3,6-dimethyl-6,7-dihydro-1H-indol-4(5H)-one], the Affinity is reported as “++”.

For `Cc1nn(-c2ccc3c(N)ncc(C#N)c3c2)c2c1C(=O)CC(C)(C)C2` [Compound 98, 1-amino-6-(3,6,6-trimethyl-4-oxo-4,5,6,7-tetrahydro-1H-indazol-1-yl)isoquinoline-4-carbonitrile], the Affinity was “++”.

With `Cc1cn(-c2ccc3c(N)ncnc3c2Cl)c2c1C(=O)CC(C)(C)C2` [Compound 80, 1-(4-amino-8-chloroquinazolin-7-yl)-3,6,6-trimethyl-6,7-dihydro-1H-indol-4(5H)-one] the Affinity was “++”.

`Cc1cn(-c2ccc3c(N)ncc(/C(N)=N/O)c3c2)c2c1C(=O)CC(C)(C)C2` [Compound 105, (Z)-1-amino-N′-hydroxy-6-(3,6,6-trimethyl-4-oxo-4,5,6,7-tetrahydro-1H-indol-1-yl)isoquinoline-4-carboximidamide] was tested, and the Affinity was “+++”.

With `Cc1cn(-c2ccc3c(N)ncnc3c2SCCO)c2c1C(=O)CC(C)(C)C2` [Compound 93, 1-(4-amino-8-(2-hydroxyethylthio)quinazolin-7-yl)-3,6,6-trimethyl-6,7-dihydro-1H-indol-4(5H)-one] the Affinity was “+++”.

In the case of `Cc1cn(-c2cc(F)c3c(N)ncnc3c2)c2c1C(=O)CC(C)(C)C2` [Compound 63, 1-(4-amino-5-fluoroquinazolin-7-yl)-3,6,6-trimethyl-6,7-dihydro-1H-indol-4(5H)-one], the Affinity is reported as “+”.

In the case of `Cc1nn(-c2ccc3c(N)ncnc3c2)c2c1C(=O)CCC2` [Compound 88, 1-(4-aminoquinazolin-7-yl)-3-methyl-6,7-dihydro-1H-indazol-4(5H)-one], the Affinity is reported as “+”.

`COc1cc(-n2cc(C)c3c2CC(C)(C)CC3=O)cc2ncnc(N)c12` [Compound 76, 1-(4-amino-5-methoxyquinazolin-7-yl)-3,6,6-trimethyl-6,7-dihydro-1H-indol-4(5H)-one] was tested, and the Affinity was “++”.

`CCCCOc1c(-n2cc(C)c3c2CC(C)(C)CC3=O)ccc2c(N)ncnc12` [Compound 53, 1-(4-amino-8-butoxyquinazolin-7-yl)-3,6,6-trimethyl-6,7-dihydro-1H-indol-4(5H)-one] was tested, and the Affinity was “+++”.
